The source made the active and inactive calls.
Key:
[1] = biological target: Kappa-type opioid receptor (Homo sapiens, UniProt P41145); assay: SAR analysis of small molecule agonists of the kappa opioid receptor via a luminescent beta-arrestin assay - Set 3. [Related pubchem assays (depositor defined):AID1777, AID1785, AID1786, AID1966, AID2133, AID2136, AID2284, AID2500]; type: functional
[2] = biological target: Glyceraldehyde-3-phosphate dehydrogenase (Homo sapiens, UniProt P04406)
[3] = biological target: Alkaline phosphatase, placental type (Homo sapiens, UniProt P05187); assay: human placental alkaline phosphatase inhibition – biochemical, luminescence, confirmation (AID 1512); type: functional
Sequence of Alkaline phosphatase, placental type (P05187 whole entry): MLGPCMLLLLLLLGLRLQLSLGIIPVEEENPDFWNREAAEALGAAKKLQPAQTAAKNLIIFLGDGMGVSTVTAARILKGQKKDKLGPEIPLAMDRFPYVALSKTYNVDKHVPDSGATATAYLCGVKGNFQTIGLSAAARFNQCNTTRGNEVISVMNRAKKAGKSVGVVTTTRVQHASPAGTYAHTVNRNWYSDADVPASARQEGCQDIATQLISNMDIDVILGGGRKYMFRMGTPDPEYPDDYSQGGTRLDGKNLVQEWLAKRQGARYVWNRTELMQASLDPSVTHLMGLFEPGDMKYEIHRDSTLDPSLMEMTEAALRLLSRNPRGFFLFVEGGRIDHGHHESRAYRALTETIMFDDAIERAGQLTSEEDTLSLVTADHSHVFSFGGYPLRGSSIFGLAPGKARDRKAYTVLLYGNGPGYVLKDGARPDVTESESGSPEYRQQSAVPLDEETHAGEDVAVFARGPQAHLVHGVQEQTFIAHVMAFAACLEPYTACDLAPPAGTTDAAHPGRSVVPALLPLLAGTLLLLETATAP

[4] = biological target: T1, Alkaline phosphatase, tissue-nonspecific isozyme (Homo sapiens, UniProt P05186); assay: potency against alkaline phosphatase TNAP – biochemical, luminescent, dose response, SAR follow-up (AID 1056)
T1 sequence (P05186 whole entry): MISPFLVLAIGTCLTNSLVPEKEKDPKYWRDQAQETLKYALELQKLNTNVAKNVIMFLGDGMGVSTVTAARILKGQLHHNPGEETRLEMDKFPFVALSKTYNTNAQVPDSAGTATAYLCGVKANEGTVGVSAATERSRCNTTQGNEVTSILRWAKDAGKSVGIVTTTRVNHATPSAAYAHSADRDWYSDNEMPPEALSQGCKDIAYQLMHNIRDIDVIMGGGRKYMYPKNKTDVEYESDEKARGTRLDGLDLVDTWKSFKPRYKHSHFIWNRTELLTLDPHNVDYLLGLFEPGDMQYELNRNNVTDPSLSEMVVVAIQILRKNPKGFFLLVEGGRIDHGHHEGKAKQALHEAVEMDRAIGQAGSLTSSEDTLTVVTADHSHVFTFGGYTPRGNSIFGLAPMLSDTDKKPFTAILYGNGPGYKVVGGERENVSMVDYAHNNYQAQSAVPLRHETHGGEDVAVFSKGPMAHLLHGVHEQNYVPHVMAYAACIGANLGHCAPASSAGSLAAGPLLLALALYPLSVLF

Troponin, cardiac muscle = Troponin, cardiac muscle (Homo sapiens, UniProt P19429+P45379+P63316); assay: Fluorescence-based biochemical high throughput dose response assay for activators of the calcium sensitivity of cardiac Regulated Thin Filaments (RTF). [Related pubchem assays (depositor defined):AID493008, AID493018, AID504382, AID504383]; type: protein-complex assay
Exodeoxyribonuclease V = biological target: T2, Exodeoxyribonuclease V (Escherichia coli (strain K12), UniProt P04993+P07648+P08394); assay: RecBCD inhibition via phage-restricted bacterial growth – absorbance, V66 E. coli, mutant T4 phage, counter-screen for AddAB inhibitor project, dose response (AID 492957); type: functional, cell-based, Escherichia coli str. K-12 substr. MG1655
T2 sequence (P04993 whole entry): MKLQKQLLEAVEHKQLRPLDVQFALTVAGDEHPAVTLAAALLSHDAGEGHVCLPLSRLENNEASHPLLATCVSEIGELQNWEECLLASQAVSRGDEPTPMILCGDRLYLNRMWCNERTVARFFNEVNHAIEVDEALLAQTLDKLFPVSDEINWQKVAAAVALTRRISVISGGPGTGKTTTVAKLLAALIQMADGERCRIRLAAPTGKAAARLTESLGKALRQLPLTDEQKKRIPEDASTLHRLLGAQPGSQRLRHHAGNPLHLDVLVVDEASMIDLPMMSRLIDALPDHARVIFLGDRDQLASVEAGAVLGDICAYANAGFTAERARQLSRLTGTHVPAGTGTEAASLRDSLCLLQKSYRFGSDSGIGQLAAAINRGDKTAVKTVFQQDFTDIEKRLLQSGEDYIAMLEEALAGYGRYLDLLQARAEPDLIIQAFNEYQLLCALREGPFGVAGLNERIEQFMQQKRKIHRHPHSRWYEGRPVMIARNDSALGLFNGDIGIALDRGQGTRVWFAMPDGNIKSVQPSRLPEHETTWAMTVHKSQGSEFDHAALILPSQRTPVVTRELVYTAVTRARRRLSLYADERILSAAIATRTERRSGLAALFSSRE
T2 sequence (P07648 whole entry): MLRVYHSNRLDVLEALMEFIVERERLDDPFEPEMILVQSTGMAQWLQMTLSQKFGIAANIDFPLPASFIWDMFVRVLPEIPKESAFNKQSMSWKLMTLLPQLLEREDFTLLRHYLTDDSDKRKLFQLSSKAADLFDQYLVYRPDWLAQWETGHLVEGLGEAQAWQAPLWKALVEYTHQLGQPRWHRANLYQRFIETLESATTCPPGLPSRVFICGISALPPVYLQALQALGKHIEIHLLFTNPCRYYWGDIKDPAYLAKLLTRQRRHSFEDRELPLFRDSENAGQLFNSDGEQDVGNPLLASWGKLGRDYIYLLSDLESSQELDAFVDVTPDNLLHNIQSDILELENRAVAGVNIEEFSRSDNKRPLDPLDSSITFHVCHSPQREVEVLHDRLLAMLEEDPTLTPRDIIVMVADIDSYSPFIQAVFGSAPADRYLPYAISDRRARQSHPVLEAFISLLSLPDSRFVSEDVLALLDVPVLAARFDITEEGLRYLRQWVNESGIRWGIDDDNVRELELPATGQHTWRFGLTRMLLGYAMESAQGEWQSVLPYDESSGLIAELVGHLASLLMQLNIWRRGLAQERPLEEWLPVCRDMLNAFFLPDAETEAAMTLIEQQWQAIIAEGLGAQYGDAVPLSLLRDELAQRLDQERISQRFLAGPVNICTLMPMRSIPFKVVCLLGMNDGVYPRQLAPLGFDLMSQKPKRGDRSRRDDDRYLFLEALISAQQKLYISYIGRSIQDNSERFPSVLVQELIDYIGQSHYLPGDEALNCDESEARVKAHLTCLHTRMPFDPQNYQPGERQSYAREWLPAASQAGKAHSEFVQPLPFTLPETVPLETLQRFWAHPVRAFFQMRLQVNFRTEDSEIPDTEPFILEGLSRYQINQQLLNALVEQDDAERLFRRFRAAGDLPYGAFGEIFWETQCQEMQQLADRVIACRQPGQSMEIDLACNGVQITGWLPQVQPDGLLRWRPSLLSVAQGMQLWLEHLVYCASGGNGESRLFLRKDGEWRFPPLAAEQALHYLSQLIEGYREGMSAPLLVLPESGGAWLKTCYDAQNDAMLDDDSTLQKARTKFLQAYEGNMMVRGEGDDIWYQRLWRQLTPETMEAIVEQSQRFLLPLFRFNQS
T2 sequence (P08394 whole entry): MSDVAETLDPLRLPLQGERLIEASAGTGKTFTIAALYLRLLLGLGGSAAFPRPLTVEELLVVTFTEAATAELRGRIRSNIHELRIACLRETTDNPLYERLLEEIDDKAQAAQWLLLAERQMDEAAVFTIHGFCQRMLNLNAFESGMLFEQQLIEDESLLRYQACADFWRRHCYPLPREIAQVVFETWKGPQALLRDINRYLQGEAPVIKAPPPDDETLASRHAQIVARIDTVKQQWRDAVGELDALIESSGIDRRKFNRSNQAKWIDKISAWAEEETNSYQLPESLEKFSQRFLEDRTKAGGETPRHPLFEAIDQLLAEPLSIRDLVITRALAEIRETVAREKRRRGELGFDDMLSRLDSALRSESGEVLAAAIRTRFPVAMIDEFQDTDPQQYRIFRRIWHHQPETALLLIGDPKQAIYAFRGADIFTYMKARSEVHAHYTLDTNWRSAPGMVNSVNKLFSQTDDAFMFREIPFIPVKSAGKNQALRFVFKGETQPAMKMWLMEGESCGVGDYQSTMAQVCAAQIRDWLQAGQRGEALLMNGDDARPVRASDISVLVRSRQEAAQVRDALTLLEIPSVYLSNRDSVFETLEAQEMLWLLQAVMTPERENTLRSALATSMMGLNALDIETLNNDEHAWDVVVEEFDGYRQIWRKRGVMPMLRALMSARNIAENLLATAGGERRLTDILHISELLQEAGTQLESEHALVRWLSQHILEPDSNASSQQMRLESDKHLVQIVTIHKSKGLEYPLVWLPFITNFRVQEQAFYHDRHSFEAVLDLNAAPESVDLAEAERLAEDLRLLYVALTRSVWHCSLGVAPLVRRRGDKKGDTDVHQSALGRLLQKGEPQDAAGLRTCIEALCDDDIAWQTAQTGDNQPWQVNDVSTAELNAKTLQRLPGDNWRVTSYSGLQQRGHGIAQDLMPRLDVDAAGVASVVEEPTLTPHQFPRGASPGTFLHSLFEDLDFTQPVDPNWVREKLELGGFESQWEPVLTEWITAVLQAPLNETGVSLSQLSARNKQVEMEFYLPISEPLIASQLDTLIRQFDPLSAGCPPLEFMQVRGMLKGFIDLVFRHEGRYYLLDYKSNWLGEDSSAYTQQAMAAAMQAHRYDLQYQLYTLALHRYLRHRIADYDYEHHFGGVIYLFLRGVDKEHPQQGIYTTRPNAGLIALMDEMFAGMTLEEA

[5] = THP-1 cell cytotoxicity, dose response, cytotoxicity control for non-replicating M. tuberculosis project (AID 489025); type: functional
[6] = HepG2 cell cytotoxicity, dose response, cytotoxicity control for non-replicating M. tuberculosis project (AID 489018); type: functional; conditions: Mycobacterium tuberculosis
[7] = Vero E6 cell cytotoxicity, dose response, cytotoxicity control for non-replicating M. tuberculosis project, secondary assay (AID 492998); type: functional, VeroE6; conditions: Vero C1008
[8] = Counterscreen for AddAB inhibitors: absorbance-based bacterial cell-based high throughput dose response assay for inhibitors of bacterial viability. [Related pubchem assays (depositor defined):AID435030, AID449728, AID449731, AID488942, AID488955, AID488956]; type: functional
[9] = biological target: T3, Microphthalmia-associated transcription factor (Homo sapiens, UniProt O75030); assay: reducers of TRPM1 reporter luminescence, concentration series – cell-based, SK-MEL-5, cherry-picked, set 3, MITF inhibitor project, dose response (AID 493073); type: functional;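 note: SK-MEL-5 melanoma cells with luciferase driven by the MITF target TRPM1 promoter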
T3 sequence (O75030 whole entry): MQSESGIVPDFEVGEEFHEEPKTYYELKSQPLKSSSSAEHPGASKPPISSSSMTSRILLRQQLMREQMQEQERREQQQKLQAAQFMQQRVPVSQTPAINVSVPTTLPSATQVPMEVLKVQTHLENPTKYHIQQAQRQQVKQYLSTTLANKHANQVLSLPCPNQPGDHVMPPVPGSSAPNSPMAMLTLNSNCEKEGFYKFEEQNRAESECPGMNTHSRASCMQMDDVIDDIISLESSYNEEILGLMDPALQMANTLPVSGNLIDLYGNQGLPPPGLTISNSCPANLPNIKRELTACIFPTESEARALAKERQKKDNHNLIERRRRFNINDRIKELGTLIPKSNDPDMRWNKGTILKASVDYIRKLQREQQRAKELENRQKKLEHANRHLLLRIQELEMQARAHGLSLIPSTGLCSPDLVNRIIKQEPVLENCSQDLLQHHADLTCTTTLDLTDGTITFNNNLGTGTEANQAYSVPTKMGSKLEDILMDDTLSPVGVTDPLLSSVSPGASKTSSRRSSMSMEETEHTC

cells = type: functional
Paired box protein Pax-8 = Paired box protein Pax-8 (Homo sapiens, UniProt Q06710); assay: PAX8 transcriptional activity inhibition in RMG-I – RMG-I cells, luciferase, cherry-pick, dose response (AID 687027); type: functional, cell-based;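 note: luciferase reporter driven by Pax8 target thyroperoxidase promoter measured by SteadyGlo luminescence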
Sequence of Paired box protein Pax-8 (Q06710 whole entry): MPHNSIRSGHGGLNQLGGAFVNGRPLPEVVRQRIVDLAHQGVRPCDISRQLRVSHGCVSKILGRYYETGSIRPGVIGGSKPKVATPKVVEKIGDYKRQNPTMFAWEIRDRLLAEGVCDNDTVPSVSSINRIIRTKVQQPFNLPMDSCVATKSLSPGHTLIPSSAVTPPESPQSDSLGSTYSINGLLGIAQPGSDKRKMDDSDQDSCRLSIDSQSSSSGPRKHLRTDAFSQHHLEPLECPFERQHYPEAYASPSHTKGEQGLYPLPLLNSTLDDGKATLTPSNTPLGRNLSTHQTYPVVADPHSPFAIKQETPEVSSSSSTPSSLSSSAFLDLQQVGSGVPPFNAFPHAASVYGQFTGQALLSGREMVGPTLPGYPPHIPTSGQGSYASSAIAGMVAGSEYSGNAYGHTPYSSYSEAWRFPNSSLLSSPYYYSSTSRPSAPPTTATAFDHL

[10] = Trypanosoma cruzi growth suppression in host cells – NIH3T3 host cells, beta-gal luminescence, confirmation (AID 2044); type: functional, cell-based;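 note: intracellular parasites grown in NIH/3T3 mouse fibroblasts as host cells; luminescent beta-galactosidase reporter signal from transgenic T. cruzi replicating inside host cells; inhibitors lower the luminescence signal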
[11] = NIH3T3 cell viability loss – ATP luminescence, mouse fibroblasts, counter-screen, dose response (AID 2010); type: functional, cell-based;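 note: cells exposed to compound for about 90 hours before reading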
[12] = biological target: G-protein coupled receptor 55 (Homo sapiens, UniProt Q9Y2T6); assay: inhibition of LPI-stimulated GPR55 beta-arrestin translocation – imaging, U2OS, beta-arrestin-GFP, LPI agonist, primary screen (AID 2013); type: functional;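 note: antagonist potency measured as reduced agonist-driven arrestin aggregation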
Sequence of G-protein coupled receptor 55 (Q9Y2T6 whole entry): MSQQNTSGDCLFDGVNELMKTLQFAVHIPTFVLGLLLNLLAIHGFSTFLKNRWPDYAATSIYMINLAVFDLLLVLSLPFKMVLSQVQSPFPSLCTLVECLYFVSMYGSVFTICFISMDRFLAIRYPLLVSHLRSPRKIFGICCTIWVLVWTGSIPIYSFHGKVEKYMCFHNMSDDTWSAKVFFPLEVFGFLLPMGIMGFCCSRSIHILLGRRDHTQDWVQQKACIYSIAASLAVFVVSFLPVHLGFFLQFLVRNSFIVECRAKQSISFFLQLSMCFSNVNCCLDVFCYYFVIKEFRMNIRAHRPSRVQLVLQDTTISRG

CAAX prenyl protease 2 = CAAX prenyl protease 2 (Saccharomyces cerevisiae S288c, UniProt Q03530); type: biochemical
Sequence of CAAX prenyl protease 2 (Q03530 whole entry): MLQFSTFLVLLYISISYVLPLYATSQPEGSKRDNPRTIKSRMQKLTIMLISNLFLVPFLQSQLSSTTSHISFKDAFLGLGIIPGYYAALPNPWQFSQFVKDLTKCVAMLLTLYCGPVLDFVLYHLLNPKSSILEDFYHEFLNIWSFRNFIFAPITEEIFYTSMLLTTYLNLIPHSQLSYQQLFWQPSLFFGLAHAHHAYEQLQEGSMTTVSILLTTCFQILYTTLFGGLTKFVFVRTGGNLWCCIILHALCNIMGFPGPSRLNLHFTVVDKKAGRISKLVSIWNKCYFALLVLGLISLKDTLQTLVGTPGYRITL

CAAX prenyl protease 1 = CAAX prenyl protease 1 (Saccharomyces cerevisiae S288c, UniProt P47154); assay: yeast CAAX protease Ste24 inhibition – biochemical, S. cerevisiae, plate reader, cherry-pick, dose response (AID 488815)
Sequence of CAAX prenyl protease 1 (P47154 whole entry): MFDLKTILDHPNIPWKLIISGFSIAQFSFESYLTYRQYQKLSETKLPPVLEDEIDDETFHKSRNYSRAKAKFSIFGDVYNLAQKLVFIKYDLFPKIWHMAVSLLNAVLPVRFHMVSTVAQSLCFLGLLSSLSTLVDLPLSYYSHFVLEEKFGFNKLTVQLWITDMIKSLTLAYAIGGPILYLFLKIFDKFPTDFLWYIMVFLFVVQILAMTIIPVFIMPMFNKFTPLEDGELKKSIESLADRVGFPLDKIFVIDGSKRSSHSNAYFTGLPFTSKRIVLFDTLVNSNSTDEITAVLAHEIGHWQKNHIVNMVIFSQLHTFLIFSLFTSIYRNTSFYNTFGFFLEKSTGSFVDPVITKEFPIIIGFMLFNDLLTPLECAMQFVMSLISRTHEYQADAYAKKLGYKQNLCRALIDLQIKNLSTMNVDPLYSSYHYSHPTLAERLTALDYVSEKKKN

Sequence of Glyceraldehyde-3-phosphate dehydrogenase (P04406 whole entry): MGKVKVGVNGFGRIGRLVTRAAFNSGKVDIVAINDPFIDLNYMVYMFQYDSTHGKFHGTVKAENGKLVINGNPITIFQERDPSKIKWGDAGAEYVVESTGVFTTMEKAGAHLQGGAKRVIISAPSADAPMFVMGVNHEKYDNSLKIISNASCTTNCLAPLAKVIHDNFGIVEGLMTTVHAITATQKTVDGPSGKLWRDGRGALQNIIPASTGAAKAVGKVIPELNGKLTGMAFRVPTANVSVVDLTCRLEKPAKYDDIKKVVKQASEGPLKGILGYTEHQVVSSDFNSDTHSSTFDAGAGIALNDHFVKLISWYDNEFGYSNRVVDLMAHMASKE
Sequence of Kappa-type opioid receptor (P41145 whole entry): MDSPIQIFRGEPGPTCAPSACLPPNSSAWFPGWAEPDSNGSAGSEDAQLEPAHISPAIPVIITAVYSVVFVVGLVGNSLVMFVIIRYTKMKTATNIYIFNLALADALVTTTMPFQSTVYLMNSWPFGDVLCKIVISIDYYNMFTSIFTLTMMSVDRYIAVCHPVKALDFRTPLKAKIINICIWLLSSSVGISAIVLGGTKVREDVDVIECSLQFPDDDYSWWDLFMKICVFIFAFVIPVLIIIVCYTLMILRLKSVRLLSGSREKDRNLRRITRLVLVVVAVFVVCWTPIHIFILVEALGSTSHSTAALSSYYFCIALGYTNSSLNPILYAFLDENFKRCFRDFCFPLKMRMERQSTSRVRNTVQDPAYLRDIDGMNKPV

Structure (SMILES): Clc1ccccc1Cn1c(SCc2ccc(Br)cc2)nnc1-c1ccccn1
- EC50 [1]: 14.2 µM (inactive)

Structure (SMILES): Nc1nc(Cc2ccc3ccccc3c2)n(-c2ccccc2)n1
- IC50 [2]: > 100 µM (not active)
- IC50 [3]: > 100 µM (inactive)
- IC50 [4]: > 100 µM (inactive)

Structure (SMILES): CCCNC(=O)Cn1c(=O)/c(=C\c2ccc(-c3ccc([N+](=O)[O-])cc3)o2)s/c1=C\C(=O)C(C)(C)C
- EC50 (Troponin, cardiac muscle): 0.165 µM (active)

Structure (SMILES): CC1(C)CC(=O)C(/C=N/c2cc(C(=O)c3ccccc3)ccc2N)=C(O)C1
- EC50 (Troponin, cardiac muscle): 20.4 µM (inactive)

Structure (SMILES): CC(C)C(=O)N1CCN(c2ccc(NC(=O)c3ccc([N+](=O)[O-])o3)cc2)CC1
- IC50 (Exodeoxyribonuclease V): > 119 µM (inactive)
- CC50 [5]: 5.52 µM (active)
- CC50 [6]: 9.53 µM (active)
- CC50 [7]: 3.34 µM (active)
- IC50 [8]: > 119 µM (inactive)
- AC50 [9]: 7.98 µM (active)
- IC50 (cells): 0.54 µM (active)
- AC50 (Paired box protein Pax-8): 4.48 µM (active)

Structure (SMILES): CCn1nnc(NC(=O)c2ccc([N+](=O)[O-])o2)n1
- EC50 [10]: 0.179 µM (active)
- EC50 [11]: > 60 µM (inconclusive)
- IC50 (Exodeoxyribonuclease V): > 118 µM (inactive)
- CC50 [5]: 38.5 µM (active)
- CC50 [6]: > 20 µM (active)
- CC50 [7]: 4.8 µM (active)
- IC50 [8]: 61.7 µM (inactive)

Structure (SMILES): Cn1cccc1/C=C1\C(=O)NC(=O)N(Cc2ccccc2Cl)C1=O
- IC50 [12]: 0.978 µM (active)

Structure (SMILES): CN(C)C(=O)COc1ccc2ccc(=O)oc2c1
- AC50 (CAAX prenyl protease 2): 41.5 µM (active)
- AC50 (CAAX prenyl protease 1): 6.76 µM (active)

Structure (SMILES): Cc1cc(NCC(=O)c2ccc(O)c(O)c2)[nH]n1
- IC50 [3]: 5.71 µM (active)
- IC50 [4]: 18.3 µM (active)

Reference: ChEMBL document CHEMBL1201862, “PubChem BioAssay data set” (2004)
